The values below come from EP0240717A2, “Prevention of mammary carcinoma” (The Board of Regents of the University of Nebraska, priority 1986, dated 1987).

One data set has as its system breast carcinoma. The following applies: cited from earlier work; for percent of the rats developed cancer in 7 months / percent of the rats developed cancer in one year: rats treated with drug and a carcinogen; for percent of the rats developed cancer in 7 months: incidence at 7 months; for percent of the rats developed cancer in one year: incidence at one year; for lifetime effect in reducing the appearance of breast carcinoma: treated rats compared to other rats receiving carcinogen at the same time.

The conditions of data set [1]: in animals; cited from earlier work.
The test system of another data set is mammary carcinoma. In words: Anti-mammary carcinogenic activity in female rats fed DMBA, hormone given by pellet or minipump. Format: in vivo, Sprague-Dawley rats. Particulars: doses that do not have undesirable side effects. The procedure:
In tests for anti-mammary carcinogenic activity following the feeding of carcinogen to mammals, ten different estrogenic compounds were implanted in female rats fed a carcinogen. The incidence of breast cancer for each compound was determined. Rats receiving only the carcinogen were used as controls. Ethynyl estriol was obtained from Eli Lilly, Inc., Greenfield, Indiana; the other estrogens were obtained from Sigma, Inc., St. Louis, Missouri, or Steraloids, Inc., Wilton, New Hampshire.
In all of the tests, intact female Sprague-Dawley rats, obtained from Sasco, Inc., Omaha, Nebraska, at 50 to 55 days of age were used.
They were: (1) randomized upon receipt; (2) housed individually in suspended cages; (3) fed Purina Lab Chow and distilled water; and (4) the temperature was maintained within 22-23 degrees and 40-50 percent relative humidity. […]
Rats free of neoplasms were followed for one year. […] Significant differences in cancer incidence between treated and controlled groups were determined.
The differences in cancer incidence between treated and controlled groups in each experiment were determined by X2 using the Yate's correction. […] The significance of difference in mammary-carcinoma-free survival in rate-days was determined for these groups at 210 days after DMBA administration using the Mann-Whitney U Test. […]

For data set [2] the following is noted: in vitro by tissues; cited from earlier work.
For data set [3], the system named is breast cancers induced by a carcinogenic chemical. Particulars: cited from earlier work.

As to `C[C@]12CC[C@@H]3c4cc(O)c(O)cc4CC[C@H]3[C@@H]1CC[C@@H]2O` [2-OH estradiol 17 beta], in the data set with breast carcinoma, the “percent of the rats developed cancer in 7 months” value (from here on “percent … in 7 months”) is on record as 78% and the “percent of the rats developed cancer in one year” value (“percent … in one year” below) is given as 94%.

Regarding `C[C@]12CC[C@@H]3c4ccc(O)cc4C(=O)C[C@H]3[C@@H]1CC[C@@H]2O` [6 keto estradiol, 6-keto estradiol 17 beta], in the data set on breast carcinoma, the “percent … in 7 months” value is 31%, the “percent … in one year” value was 61% and the “lifetime effect in reducing the appearance of breast carcinoma” value is reported as 30-50%.

Take `C#C[C@]1(O)CC[C@H]2[C@@H]3CCc4cc(O)ccc4[C@H]3[C@@H](OC)C[C@@]21C` [11 beta methoxy 17 alpha ethynyl estradiol 17 beta]: the carcinogenicity result in data set [1] is given as “carcinogenic in animals”.

With `C#C[C@]1(O)CC[C@H]2[C@@H]3CCc4cc(O)ccc4[C@H]3CC[C@@]21C` [17 alpha ethynyl estradiol 17 beta], in the data set on breast carcinoma, the “percent … in 7 months” value is recorded as 90% and the “percent … in one year” value is 100%.

With `C#C[C@]1(O)[C@H](O)C[C@H]2[C@@H]3CCc4cc(O)ccc4[C@H]3CC[C@@]21C` [17 alpha ethynyl estriol], in the data set with mammary carcinoma, the “risk of mammary carcinoma” value is given as “reduce the risk of mammary carcinoma”.

For the molecule `C[C@]12CCc3c(ccc4cc(O)ccc34)[C@@H]1CCC2=O` [d-equilenin], the position of oxidation result in data set [2] is “almost exclusively at the C4 (R1) position”.

Take `CC/C(=C(/CC)c1ccc(O)cc1)c1ccc(O)cc1` [diethylstilbestrol]: in the data set on breast carcinoma, the “percent … in 7 months” value was 88% and the “percent … in one year” value is 100%.

`COc1ccc2c(c1)CC[C@@H]1[C@@H]2CC[C@]2(C)[C@@H](O)[C@H](O)C[C@@H]12` [estriol 3-methyl ether]: the “lifetime effect in reducing the appearance of breast carcinoma” value in the data set with breast carcinoma is 30-50%.

As to `C[C@]12CC[C@@H]3c4ccc(O)cc4CC[C@H]3[C@@H]1C[C@@H](O)[C@@H]2O` [estriol], in the data set on breast carcinoma, the “percent … in 7 months” value is 26% and the “percent … in one year” value is reported as 63%. Besides, in data set [3], the “inhibiting the development of breast cancers” value is given as “moderately effective”.

Consider `CC/C(=C(\c1ccccc1)c1ccc(OCCN(C)C)cc1)c1ccccc1` [tamoxifen], for which, in the data set on breast carcinoma, the “percent … in 7 months” value is recorded as 78% and the “percent … in one year” value is recorded as 89%.
